Twelve molecules from ChEMBL document CHEMBL5370676, “KRAS-Degrading Compounds: A Novel Approach to Treat Cancer by Targeting Both Wild-Type and Mutated KRAS Forms” (ACS Med Chem Lett, 2023) can be followed below.

Common to all, as to format: cell-based
In assay [1] the target is T1, von Hippel-Lindau disease tumor suppressor/GTPase KRas (Homo sapiens, UniProt P01116+P40337, G12D). As to the kind of experiment: PROTAC activity at VHL/N-terminal HiBit-tagged KRAS G12D mutant (unknown origin) in human GP5d cells assessed as induction of KRAS G12D protein degradation incubated for 18 hrs by Nano-Gio HiBiT assay. (The HiBiT peptide binds its large partner to form an active luciferase.)

Assay [2] has as its system von Hippel-Lindau disease tumor suppressor/GTPase KRas (Homo sapiens), P01116+P40337 [G12D]. Nature of the assay: PROTAC activity at VHL/HiBit-tagged KRAS G12D mutant (unknown origin) in human GP5d cells assessed as induction of KRAS G12D protein degradation incubated for 18 hrs by Nano-Gio HiBiT assay relative control.
Assay [3] shares this test system. Nature of the assay: PROTAC activity at E3 ubiquitin ligase/N-terminal HiBit-tagged KRAS G12D mutant (unknown origin) in human GP5d cells assessed as induction of KRAS G12D protein degradation incubated for 18 hrs by Nano-Gio HiBiT assay relative to control.
Assay [4] addresses T1, von Hippel-Lindau disease tumor suppressor/GTPase KRas. As to the kind of experiment: PROTAC activity at E3 ubiquitin ligase/N-terminal HiBit-tagged KRAS G12D mutant (unknown origin) in human GP5d cells assessed as induction of KRAS G12D protein degradation incubated for 18 hrs by Nano-Gio HiBiT assay.

von Hippel-Lindau disease tumor suppressor/GTPase KRas (Homo sapiens), P01116+P40337 [G12D], sequence (P01116 whole entry G12D): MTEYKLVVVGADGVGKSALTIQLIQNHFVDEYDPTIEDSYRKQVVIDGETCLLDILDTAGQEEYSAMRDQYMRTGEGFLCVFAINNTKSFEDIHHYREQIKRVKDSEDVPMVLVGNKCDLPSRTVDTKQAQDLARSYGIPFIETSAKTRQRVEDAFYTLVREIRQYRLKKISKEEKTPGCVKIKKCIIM
von Hippel-Lindau disease tumor suppressor/GTPase KRas (Homo sapiens), P01116+P40337 [G12D], sequence (P40337 whole entry partner): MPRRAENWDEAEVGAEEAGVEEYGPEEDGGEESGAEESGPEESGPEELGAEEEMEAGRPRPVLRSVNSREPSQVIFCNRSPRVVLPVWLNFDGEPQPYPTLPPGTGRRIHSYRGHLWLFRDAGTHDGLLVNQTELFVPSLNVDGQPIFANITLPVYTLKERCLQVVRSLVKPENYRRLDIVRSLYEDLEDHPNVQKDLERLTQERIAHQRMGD
T1 sequence (P01116 whole entry G12D, stated change not applied): as the sequence (P01116 whole entry G12D) above
T1 sequence (P40337 whole entry, stated change not applied): as the sequence (P40337 whole entry partner) above

What is called DC50 is the concentration at which degradation of the target reaches its halfway point. As a reminder, the Emax is the size of the effect at its maximum, as opposed to the concentration needed. On to `Cc1ncsc1-c1ccc(CNC(=O)[C@@H]2C[C@@H](O)CN2C(=O)C(c2cc(OCCCCN3CCCN(c4nccc(-c5noc([C@@]6(C)CCCc7sc(N)c(C#N)c76)n5)n4)[C@@H](C)C3)no2)C(C)C)cc1F` (some centres undefined), for which, in assay [1], the 50% degradation concentration (DC50) was found to be 6.5 nM. Moreover, in assay [2], the Emax was 92%.

For the molecule `Cc1ncsc1-c1ccc(CNC(=O)[C@@H]2C[C@@H](O)CN2C(=O)C(c2cc(OCCCCN3CCCN(c4nccc(-c5noc([C@@]6(C)CCCc7sc(N)c(C#N)c76)n5)n4)[C@@H](C)C3)no2)C(C)C)cc1` (some centres undefined), the DC50 in assay [1] was 2.7 nM. Moreover, the maximal response (Emax) in assay [2] amounted to 91%.

Regarding `Cc1ncsc1-c1ccc(CNC(=O)[C@@H]2C[C@@H](O)CN2C(=O)C(c2cc(OCCCCN3CCCN(c4nccc(-c5cc([C@@]6(C)CCCc7sc(N)c(C#N)c76)on5)n4)[C@@H](C)C3)no2)C(C)C)cc1` (some centres undefined), the DC50 in assay [1] was determined as 4.3 nM. Further, the Emax in assay [2] came to 94%.

For the molecule `Cc1ncsc1-c1ccc(CNC(=O)[C@@H]2C[C@@H](O)CN2C(=O)C(c2cc(OCCCN3CCCN(c4nccc(-c5noc([C@@]6(C)CCCc7sc(N)c(C#N)c76)n5)n4)[C@@H](C)C3)no2)C(C)C)cc1` (some centres undefined), the DC50 in assay [1] worked out at 6.4 nM. For the same molecule, the maximal response (Emax) in assay [2] came out at 94%.

`Cc1ncsc1-c1ccc([C@@H](NC(=O)[C@H]2C[C@H](O)CN2C(=O)[C@@H](C(C)C)n2cc(OCCCN3CCCN(c4nccc(-c5noc([C@@]6(C)CCCc7sc(N)c(C#N)c76)n5)n4)[C@@H](C)C3)nn2)[C@@H](O)C(C)C)cc1`: in assay [1], the DC50 was 1.2 nM. The Emax in assay [2] was 93%.

Consider `Cc1ncsc1-c1ccc([C@H](NC(=O)[C@@H]2C[C@@H](O)CN2C(=O)[C@H](C(C)C)n2cc(OCCCCN3CCCN(c4nccc(-c5noc([C@@]6(C)CCCc7sc(N)c(C#N)c76)n5)n4)[C@@H](C)C3)nn2)[C@H](C)O)cc1` (single isomer, unassigned), for which the DC50 in assay [1] is 1.6 nM. Also, the maximal effect (Emax) in assay [2] came out at 94%.

Take `Cc1ncsc1-c1ccc(CNC(=O)[C@@H]2C[C@@H](O)CN2C(=O)C(c2cc(OCCCCN3CCCN(c4nccc(-c5cc([C@@]6(C)CCCc7sc(N)c(C#N)c76)no5)n4)[C@@H](C)C3)no2)C(C)C)cc1` (single isomer, unassigned): in assay [1], the DC50 turned out to be 8.9 nM. Also, the Emax in assay [2] stood at 92%.

`CC(C)C(C(=O)N1C[C@H](O)C[C@H]1C(=O)NCc1ccc(-n2ccnc2)cc1)c1cc(OCCCCN2CCCN(c3nccc(-c4noc([C@@]5(C)CCCc6sc(N)c(C#N)c65)n4)n3)[C@@H](C)C2)no1` (single isomer, unassigned): the Emax in assay [3] came out at 93%. In addition, the 50% degradation concentration (DC50) in assay [4] came out at 6.7 nM.

For `CC(C)C(C(=O)N1C[C@H](O)C[C@H]1C(=O)NCc1ccc(C#N)cc1)c1cc(OCCCCN2CCCN(c3nccc(-c4noc([C@@]5(C)CCCc6sc(N)c(C#N)c65)n4)n3)[C@@H](C)C2)no1` (single isomer, unassigned), the Emax in assay [3] is 91%. In addition, in assay [4], the half-maximal degradation concentration (DC50) stood at 3.9 nM.

Consider `Cc1ncsc1-c1ccc([C@H](CO)NC(=O)[C@@H]2C[C@@H](O)CN2C(=O)[C@H](C(C)C)n2cc(OCCCC(C)N3CCCN(c4nccc(-c5noc([C@@]6(C)CCCc7sc(N)c(C#N)c76)n5)n4)[C@@H](C)C3)nn2)cc1` (single isomer, unassigned), for which the 50% degradation concentration (DC50) in assay [1] turned out to be 1.4 nM. Further, the maximum response (Emax) in assay [2] came out at 94%.

In the case of `Cc1ncsc1-c1ccc([C@H](C)NC(=O)[C@@H]2C[C@@H](O)CN2C(=O)C(C(C)C)n2cc(OCCCCN3CCCN(c4nccc(-c5noc([C@@]6(C)CCCc7sc(N)c(C#N)c76)n5)n4)[C@@H](C)C3)nn2)cc1` (single isomer, unassigned), the DC50 in assay [1] is 1.5 nM. Besides, in assay [2], the Emax amounted to 93%.

In the case of `CC(C)C(C(=O)N1C[C@H](O)C[C@H]1C(=O)NCc1ccc(-n2cncn2)cc1)c1cc(OCCCCN2CCCN(c3nccc(-c4noc([C@@]5(C)CCCc6sc(N)c(C#N)c65)n4)n3)[C@@H](C)C2)no1` (single isomer, unassigned), in assay [3], the Emax was 93%. For the same molecule, the DC50 in assay [4] is 3.3 nM.
